Measured values taken from patent US20230145793A1, “SUBSTITUTED PYRIMIDINE OR PYRIDINE AMINE DERIVATIVE, COMPOSITION THEREOF, AND MEDICAL USE THEREOF” (SHANGHAI HAIYAN PHARMACEUTICAL TECHNOLOGY CO., LTD., priority 2020, published 2023).

target: T1, A2A receptor (Homo sapiens, UniProt P29274); assay: Test 1: inhibitory activity to the A2A receptor, cAMP HTRF in CHO-K1/ADORA2A/Gα15 cells, NECA 50 nM; format: cell-based; conditions: not given
T1 construct: host or cells: CHO-K1 (co-expressing Gα15)
T1 sequence (P29274 whole entry): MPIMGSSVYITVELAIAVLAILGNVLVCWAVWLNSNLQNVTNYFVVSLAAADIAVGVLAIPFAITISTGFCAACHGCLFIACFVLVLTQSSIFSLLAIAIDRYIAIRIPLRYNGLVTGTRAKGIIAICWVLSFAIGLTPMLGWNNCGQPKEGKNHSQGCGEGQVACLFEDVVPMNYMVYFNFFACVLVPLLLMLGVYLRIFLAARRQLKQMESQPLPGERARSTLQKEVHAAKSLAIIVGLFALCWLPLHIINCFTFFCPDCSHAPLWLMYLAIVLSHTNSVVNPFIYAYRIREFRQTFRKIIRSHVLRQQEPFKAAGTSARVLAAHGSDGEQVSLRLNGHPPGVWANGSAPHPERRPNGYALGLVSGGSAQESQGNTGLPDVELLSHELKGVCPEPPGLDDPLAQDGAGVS
Method: (§1) Test 1: Inhibitory Activities to the A2A Receptor and the A2B Receptor CHO-K1/ADORA2A/Gα15 (GenScript, M00246) and CHO-K1/ADORA2B/Gα15 (GenScript, M00329) cells were cultured in a Ham's F-12 (Gibco, 31765092) medium containing 10% FBS, Zeocin (200 ug/mL), and Hygromycin B (100 ug/mL), or containing 10% FBS, G418 (400 ug/mL), and Hygromycin B (100 ug/mL) under culture conditions specified in the corresponding instruction. Screening procedure was as follows: 1. The cell density was adjusted with a serum-free medium to 6×10^5 cells/mL. 2. 5 uL of cell solution, 2.5 μL of NECA (Sigma, 119140-10MG), and 2.5 μL of compound solution were placed into each well of a 384-well plate (Greiner Bio-One, 784075) in sequence, the final concentration of NECA was 50 nM (CHO-K1/ADORA2A) or 10 nM (CHO-K1/ADORA2B), and the compound solution was subjected to 3-fold dilution from the final concentration of 3 uM. 3. The cells were placed still and cultured in an incubator at 37° C. for 30 min. 4. 5 μL of cAMP-d2 and 5 μL of cAMP-ab (Cisbio, 62AM4PEB) were added in sequence. 5. The 384-well plate was placed in dark at the room temperature for 1 h. 6. The plate was read (Victor X5, PerkinElmer), data were analyzed by XLfit nonlinear regression, and IC50 values of the compounds were calculated.

Row | SMILES | IC50 [µM]
1 | Cc1c(C#N)cccc1-c1nc(N)c(Cl)c(-c2cn(Cc3cccc(C(C)(C)O)n3)nn2)n1 [Compound L-3] | < 0.001
2 | Cc1c(C#N)cccc1-c1nc(N)c(F)c(-c2cn(Cc3ccn(CC(F)F)n3)nn2)n1 [Compound L-44] | 0.001
3 | Cc1c(C#N)cccc1-c1nc(N)c(Cl)c(-c2cn(Cc3cc(C(C)(C)O)n(C)n3)nn2)n1 [Compound L-10] | 0.004
4 | Cc1c(C#N)cccc1-c1nc(N)c(F)c(-c2cn(Cc3ccn(CCF)n3)nn2)n1 [Compound L-38] | 0.001
5 | Cc1c(C#N)cccc1-c1nc(N)c(F)c(-c2cn(Cc3ccn(C4CC4)n3)nn2)n1 [Compound L-32] | < 0.001

The remaining compounds from weak to strong by IC50, led by results:

Row | IC50 [µM] | SMILES
6 | 0.003 | Cc1c(C#N)cccc1-c1nc(N)c(F)c(-c2cn(Cc3ccn(C)n3)nn2)n1 [Compound L-67]
7 | 0.001 | Cc1c(C#N)cccc1-c1nc(N)c(Cl)c(-c2cn(Cc3ccn(C)n3)nn2)n1 [Compound L-9]

target: T2, A2B receptor (Homo sapiens, UniProt P29275); assay: Test 1: inhibitory activity to the A2B receptor, cAMP HTRF in CHO-K1/ADORA2B/Gα15 cells, NECA 10 nM; format: cell-based; conditions: not given
T2 construct: host or cells: CHO-K1 (co-expressing Gα15)
T2 sequence (P29275 1-332): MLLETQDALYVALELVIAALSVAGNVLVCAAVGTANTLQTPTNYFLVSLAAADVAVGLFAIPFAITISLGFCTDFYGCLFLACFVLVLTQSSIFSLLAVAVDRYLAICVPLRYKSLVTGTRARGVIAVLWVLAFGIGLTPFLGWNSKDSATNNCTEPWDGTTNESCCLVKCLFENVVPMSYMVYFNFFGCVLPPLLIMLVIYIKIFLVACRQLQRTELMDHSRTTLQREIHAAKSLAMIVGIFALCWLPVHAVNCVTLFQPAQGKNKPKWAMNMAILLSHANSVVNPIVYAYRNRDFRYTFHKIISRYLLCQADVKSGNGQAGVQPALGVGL
Method: as §1

Row | SMILES | IC50 [µM]
8 | Cc1c(C#N)cccc1-c1nc(N)c(Cl)c(-c2cn(Cc3cccc(C(C)(C)O)n3)nn2)n1 [Compound L-3] | 0.004
9 | Cc1c(C#N)cccc1-c1nc(N)c(F)c(-c2cn(Cc3ccn(CC(F)F)n3)nn2)n1 [Compound L-44] | 0.004
10 | Cc1c(C#N)cccc1-c1nc(N)c(Cl)c(-c2cn(Cc3cc(C(C)(C)O)n(C)n3)nn2)n1 [Compound L-10] | 0.001
11 | Cc1c(C#N)cccc1-c1nc(N)c(F)c(-c2cn(Cc3ccn(CCF)n3)nn2)n1 [Compound L-38] | 0.002
12 | Cc1c(C#N)cccc1-c1nc(N)c(F)c(-c2cn(Cc3ccn(C4CC4)n3)nn2)n1 [Compound L-32] | 0.001

The remaining lines, values ahead:

Row | IC50 [µM] | SMILES
13 | 0.007 | Cc1c(C#N)cccc1-c1nc(N)c(F)c(-c2cn(Cc3ccn(C)n3)nn2)n1 [Compound L-67]
14 | 0.001 | Cc1c(C#N)cccc1-c1nc(N)c(Cl)c(-c2cn(Cc3ccn(C)n3)nn2)n1 [Compound L-9]

target: T1, A2A receptor; assay: Test 2: inhibitory activity to the A2A receptor, cAMP HTRF in CHO-K1/ADORA2A/Gα15 cells, NECA 1 uM; format: cell-based; conditions: not given
Method: (§2) Test 2: Inhibitory Activities to the A2A Receptor and the A2B Receptor
(§3) Screening procedure was as follows:
(§4) 1. The cell density was adjusted with a serum-free medium to 6×10^5 cells/mL.
(§5) 3. The cells were placed still and cultured in an incubator at 37° C. for 30 min.
(§6) 4. 5 μL of cAMP-d2 and 5 μL of cAMP-ab (Cisbio, 62AM4PEB) were added in sequence.
(§7) 5. The 384-well plate was placed in dark at the room temperature for 1 h.
(§8) 6. The plate was read (Victor X5, PerkinElmer), data were analyzed by XLfit nonlinear regression, and IC50 values of the compounds were calculated.

Row | IC50 [µM] | SMILES
15 | 0.022 | Cc1c(C#N)cccc1-c1nc(N)c(F)c(-c2cn(Cc3ccn(CC(F)F)n3)nn2)n1 [Compound L-44]
16 | 0.018 | Cc1c(C#N)cccc1-c1nc(N)c(F)c(-c2cn(Cc3ccn(CCF)n3)nn2)n1 [Compound L-38]

target: T2, A2B receptor; assay: Test 2: inhibitory activity to the A2B receptor, cAMP HTRF in CHO-K1/ADORA2B/Gα15 cells, NECA 0.1 uM; format: cell-based; conditions: not given
Method: as §2, §3, §4, §5, §6, §7, §8

Row | IC50 [µM] | SMILES
17 | 0.064 | Cc1c(C#N)cccc1-c1nc(N)c(F)c(-c2cn(Cc3ccn(CC(F)F)n3)nn2)n1 [Compound L-44]
18 | 0.05 | Cc1c(C#N)cccc1-c1nc(N)c(F)c(-c2cn(Cc3ccn(CCF)n3)nn2)n1 [Compound L-38]

test system: not listed separately; assay: Test 3: in-vivo pharmacokinetics test in mice (plasma, LC/MS/MS); conditions: mouse, male ICR mice, intravenous (tail vein) 2 mg/kg, read-out: Area under the curve AUC0-t
Method: Test 3: In-Vivo Pharmacokinetics Test
Mice were respectively administrated with the compound of the present disclosure by intravenous injection or intragastric administration, and the concentration of the drug in the plasma at different time points was determined by LC/MS/MS to explore pharmacokinetic behavior of the compound of the present disclosure in the mouse so as to evaluate the pharmacokinetic characteristics of the compound.
Experimental animals: healthy adult male ICR mice (weight: 25 to 40 g, 12 mice, mice in the intravenous injection group had free access to water and food, and mice in the intragastric administration group fasted overnight and had free access to water and food 4 h after administration), provided by Beijing Vital River Laboratory Animal Co., Ltd.
Administration method and dosage: before administration, animals that met the experimental requirements were selected, weighed, and marked. The ICR mice were subjected to tail vein administration (2 mg/kg, 5% DMSO, pH=4.5, 20% Captisol) or intragastric administration (10 mg/kg, 5% DMSO, pH=4.5, 20% Captisol).
Blood sample collection: before blood sample collection, each mouse was tied, and about 100 μL of blood was collected from each mouse subjected to administration at a preset blood collection time point through the jugular vein (for the mice subjected to intravenous administration: blood was collected from each mouse at a total of 9 time points, i.e., 0.083 h, 0.25 h, 0.5 h, 1 h, 2 h, 4 h, 6 h, 7.5 h, and 24 h after administration; and for the mice subjected to intragastric administration: blood was collected from each mouse at a total of 9 time points, i.e., 0.083 h, 0.25 h, 0.5 h, 1 h, 2 h, 4 h, 6 h, 7.5 h, and 24 h after administration). The blood was transferred to a test tube (1.5 mL) containing K2EDTA and centrifuged for 4 min (8,000 rpm, 4° C.) to separate out plasma, and the whole process was completed within 15 min after blood collection. All samples were stored in a refrigerator at −20° C. before sample analysis. The concentration of the drug was determined by LC/MS/MS.
Pharmacokinetic property parameters of the compounds of some examples of the present disclosure in the mice under the conditions of same dosage and intravenous administration are shown in Table 3:
Pharmacokinetic property parameters of the compounds of some examples of the present disclosure in the mice under the conditions of same dosage and intragastric administration are shown in Table 4: […]

Row | SMILES | AUC(0-t) [ng·h/mL]
19 | Cc1c(C#N)cccc1-c1nc(N)c(Cl)c(-c2cn(Cc3cccc(C(C)(C)O)n3)nn2)n1 [Compound L-3] | 3600
20 | Cc1c(C#N)cccc1-c1nc(N)c(Cl)c(-c2cn(Cc3cc(C(C)(C)O)n(C)n3)nn2)n1 [Compound L-10] | 2740
21 | Cc1c(C#N)cccc1-c1nc(N)c(F)c(-c2cn(Cc3ccn(CCF)n3)nn2)n1 [Compound L-38] | 2590
22 | Cc1c(C#N)cccc1-c1nc(N)c(F)c(-c2cn(Cc3ccn(C4CC4)n3)nn2)n1 [Compound L-32] | 2510

Further lines, results first:

Row | AUC(0-t) [ng·h/mL] | SMILES
23 | 2310 | Cc1c(C#N)cccc1-c1nc(N)c(F)c(-c2cn(Cc3ccn(C)n3)nn2)n1 [Compound L-67]
24 | 4680 | Cc1c(C#N)cccc1-c1nc(N)c(Cl)c(-c2cn(Cc3ccn(C)n3)nn2)n1 [Compound L-9]

same assay, conditions: mouse, male ICR mice, intravenous (tail vein) 2 mg/kg, read-out: Clearance rate CLz

Row | SMILES | clearance [mL/min/kg]
25 | Cc1c(C#N)cccc1-c1nc(N)c(Cl)c(-c2cn(Cc3cccc(C(C)(C)O)n3)nn2)n1 [Compound L-3] | 9.12
26 | Cc1c(C#N)cccc1-c1nc(N)c(Cl)c(-c2cn(Cc3cc(C(C)(C)O)n(C)n3)nn2)n1 [Compound L-10] | 12.1
27 | Cc1c(C#N)cccc1-c1nc(N)c(F)c(-c2cn(Cc3ccn(CCF)n3)nn2)n1 [Compound L-38] | 12.7
28 | Cc1c(C#N)cccc1-c1nc(N)c(F)c(-c2cn(Cc3ccn(C4CC4)n3)nn2)n1 [Compound L-32] | 13.3

Second part, the compound after the results:

Row | clearance [mL/min/kg] | SMILES
29 | 14.2 | Cc1c(C#N)cccc1-c1nc(N)c(F)c(-c2cn(Cc3ccn(C)n3)nn2)n1 [Compound L-67]
30 | 6.97 | Cc1c(C#N)cccc1-c1nc(N)c(Cl)c(-c2cn(Cc3ccn(C)n3)nn2)n1 [Compound L-9]

same assay, conditions: mouse, po, male ICR mice, intragastric administration 10 mg/kg

Row | SMILES | Cmax [ng/mL]
31 | Cc1c(C#N)cccc1-c1nc(N)c(Cl)c(-c2cn(Cc3cccc(C(C)(C)O)n3)nn2)n1 [Compound L-3] | 15900
32 | Cc1c(C#N)cccc1-c1nc(N)c(Cl)c(-c2cn(Cc3cc(C(C)(C)O)n(C)n3)nn2)n1 [Compound L-10] | 12600
33 | Cc1c(C#N)cccc1-c1nc(N)c(F)c(-c2cn(Cc3ccn(CCF)n3)nn2)n1 [Compound L-38] | 7210
34 | Cc1c(C#N)cccc1-c1nc(N)c(F)c(-c2cn(Cc3ccn(C4CC4)n3)nn2)n1 [Compound L-32] | 8980

Next, values leading:

Row | Cmax [ng/mL] | SMILES
35 | 5720 | Cc1c(C#N)cccc1-c1nc(N)c(F)c(-c2cn(Cc3ccn(C)n3)nn2)n1 [Compound L-67]
36 | 6790 | Cc1c(C#N)cccc1-c1nc(N)c(Cl)c(-c2cn(Cc3ccn(C)n3)nn2)n1 [Compound L-9]

same assay, conditions: mouse, po, male ICR mice, intragastric administration 10 mg/kg, read-out: Area under the curve AUClast

Row | SMILES | AUC(0-t) [ng·h/mL]
37 | Cc1c(C#N)cccc1-c1nc(N)c(Cl)c(-c2cn(Cc3cccc(C(C)(C)O)n3)nn2)n1 [Compound L-3] | 22200
38 | Cc1c(C#N)cccc1-c1nc(N)c(Cl)c(-c2cn(Cc3cc(C(C)(C)O)n(C)n3)nn2)n1 [Compound L-10] | 18000
39 | Cc1c(C#N)cccc1-c1nc(N)c(F)c(-c2cn(Cc3ccn(CCF)n3)nn2)n1 [Compound L-38] | 13300
40 | Cc1c(C#N)cccc1-c1nc(N)c(F)c(-c2cn(Cc3ccn(C4CC4)n3)nn2)n1 [Compound L-32] | 14800

More lines, now with the values ahead:

Row | AUC(0-t) [ng·h/mL] | SMILES
41 | 17300 | Cc1c(C#N)cccc1-c1nc(N)c(F)c(-c2cn(Cc3ccn(C)n3)nn2)n1 [Compound L-67]
42 | 23800 | Cc1c(C#N)cccc1-c1nc(N)c(Cl)c(-c2cn(Cc3ccn(C)n3)nn2)n1 [Compound L-9]
